Measured values from US12174189B2, “Diagnostic, prognostic, and monitoring methods for chronic lymphocytic leukemia” (INSTITUTE FOR MYELOMA & BONE CANCER RESEARCH, priority 2013, dated 2024).
“Also recorded” adds a separate entry of the source.

System: LAGλ-1 tumor
Test: LAGλ-1 human MM xenograft in SCID mice
Type: in vivo, CB17 SCID mice
Settings: melphalan 3 mg/kg twice weekly i.p., vs untreated mice
Description: Serum human BCMA levels also correlated with tumor growth, IgG levels and response to treatment in mice bearing another human MM xenograft, LAGλ-1. Untreated mice (n=4) had large tumor volumes and high serum IgG and BCMA levels. […] Human BCMA was not detected in the serum of non-tumor bearing SCID mice (data not shown).

N[C@@H](Cc1ccc(N(CCCl)CCCl)cc1)C(=O)O [melphalan, Melphalan]
tumor volumes (P<0.0001): smaller; also recorded: small tumor volumes
serum IgG levels (P=0.0033): smaller; also recorded: significantly reduced
serum human BCMA levels (P=0.0055): smaller; also recorded: significantly reduced
